Read-outs that look alike come from different tables or passages of the source.
What was measured:
[1] = target: T1, human 20S proteasome (hCP), T-L activity; assay: T-L peptidase activity of isolated hCP (fluorogenic substrate); format: biochemical
T1 construct: purchased Boston Biochem (Cambridge, MA, USA)
Text: (§1) Purified human 20S proteasome (hCP) and the fluorogenic substrates Suc-LLVY-AMC, Z-Leu-Leu-Glu-AMC, and Ac-Arg-Leu-Arg-AMC used to assay the ChT-L, T-L, and C-L activity, were from Boston Biochem (Cambridge, MA, USA). Bathocuproinedisulfonic acid disodium salt (BCS), dithiothreitol (DTT), N-Acetyl-L-Cysteine (NAC), Sodium dodecylsulphate (SDS) as well as CuCl2 and Zn(NO3)2 were from Sigma-Aldrich (St. Louis, MO). Proteasome inhibitors Epoxomicin were obtained from Enzo Life Science. Wild type 20S proteasome isolated from Saccharomices Cerevisiae (yCP) and a mutant (α3ΔN) where nine residues of the N-terminal tail of the α3 subunit are deleted to provide a permanently open-gate conformations were isolated as described elsewhere.
(§2) Peptidase activities of hCP (2 nM) were assayed on in 50 μL Tris 25 mM pH 7.6, at 37 °C with 100 μM of the fluorogenic substrate. hCP was incubated with Cu(II)/Zn(II) ions for 1 h prior activity assays. The fluorescence signal activated by peptide cleavage was recorded at 440 nm (excitation at 360 nm) for 45 min, by a Varioskan (Thermo^©) plate reader in 384 multiwell plates. Three replicates were performed for each data point. Data were reported as normalized percentages of residual activity. The potency (IC50) was calculated from the value of the dose response plot corresponding at a fractional activity of 50%. The IC50 values were determined using a non linear fit of experimental data in according to equation: […]
(§3) The midpoint of this function occurs at a fractional activity value of 50%, corresponding to half inhibition of the target enzyme. The IC50 values and their standard errors were deduced from the fitting. To evaluate if copper is a reversible PI, we measured the ChT-L activity of hCP incubated with Cu(II) (2.20 μM) before and after addition of an equimolar amount of EDTA.

[2] = test system: T2, Wild type 20S proteasome (yCP); assay: ChT-L peptidase activity of wild type yeast 20S proteasome (yCP); format: biochemical, Saccharomices Cerevisiae; conditions: one-way ANOVA, p < 0.05
T2 construct: made in house; host or cells: Saccharomyces cerevisiae
Text: Figure 4 (A) Copper(II)-inhibited ChT-L peptidase activity of yCP (red bars) and the α3ΔN mutant (green bars); (pdb code: 4Q1S). […] (B) Top views of the α-rings of yCP. C); Magnified picture of the yCP gate. The first nine residues of the α3 subunit, which are not present in the α3ΔN mutant, are represented in magenta. Two histidines (α6-H14 and α1-H6) located at the entrance of the gate and near the N-terminal segment of the α3 subunit are evidenced in red. A third His residue (α3-H30) is far away from the gate and is not shown.
as §1

20S proteasome (CP) gate = test system: T3, 20S proteasome (CP) gate; assay: Steady-state Trp fluorescence of SDS-activated 20S proteasome (gating); parameters: species or system human; conditions: 100 μM Cu(II) added to SDS-activated CP (0.018% SDS), pH 7.6, 37 °C
T3 construct: purchased Boston Biochem (Cambridge, MA, USA)
Protocol: In particular, fluorescence spectra of the isolated 20S proteasome may be deconvoluted into two components. The first of these bands is ascribable to Trp13(α6) residues which are located at the entrance of the channel. Therefore, a red-shift of the first component may be associated to a gate opening of the 20S proteasome. Here, we exploited this effect to investigate the role of Cu(II) ions in CP gate closing. […] Next, we recorded the fluorescence spectra obtained immediately (t = 0 min) and after 30 min the addition of 100 μM Cu(II) ions to the SDS-activated CP and deconvoluted the fluorescence spectra into the contributions from each type of tryptophan as described in the experimental section (see Fig. 3 panel A). […]
Fluorescence emission spectra of purified 20S proteasomes (1.5 μM) in a MOPS buffer 10 mM, 0.018% SDS, pH 7.6 were recorded at 37 °C over time prior to and following addition of Cu(II) (100 μM). […] The final fluorescence spectra represent averages of at least three measurements. […] Fluorescence spectra were recorded on a Horiba Fluoromax-4 spectrofluorimeter from 300 to 400 nm in 1-nm steps, at an excitation wavelength λexc = 295 nm. Deconvolution of fluorescence spectra into the log-normal components was performed according to the algorithms integrated into the web-based toolkit PFAST (http://pfast.phys.edu/)[43]. […]

[3] = test system: ubiquitinated proteins in Hela cells; assay: Western blot of polyubiquitinated proteins in HeLa cells; format: cell-based, human; conditions: 20 and 80 μM Cu(II), 24 hours
Protocol: After 24 h of copper(II) treatment (20–80 μM), HeLa cells were washed with cold PBS, and lysed with 100 μL of RIPA buffer for 5 minutes at 4 °C, sonicated and centrifuged for 10 minutes at 4 °C (1400 rpm). The protein content of lysates is quantified using the BCA method, (protein assay kit, BioRad). Western blotting analysis for polyUb chains was performed on total protein extracts ([…]). Samples were loaded onto 4–12% bis-Tris gel, (Invitrogen). After separation, proteins were transferred onto a nitrocellulose membrane. Membranes were blotted at 4 °C O/N with the following primary antibodies: rabbit monoclonal anti-polyubiquitin (linkage specific K48) (1:2500, Abcam), and mouse anti-β-actin (1:1000, Sigma Aldrich). Secondary goat anti-rabbit labeled with IRDye 680 (1:25.000 Li-COR Biosciences) and goat anti-mouse labeled with IRDye 800 (1:25.000 Li-COR Biosciences) were used at RT for 45 min. Hybridization signals were detected with the Odyssey Infrared Imaging System (LI-COR Biosciences).

[4] = target: T4, human 20S proteasome (hCP), ChT-L activity; assay: ChT-L peptidase activity of isolated hCP (Suc-LLVY-AMC fluorogenic substrate); format: biochemical
T4 construct: purchased Boston Biochem (Cambridge, MA, USA)
Text: as §1, §2, §3

## [Cl][Cu][Cl] [Cu(II), CuCl2]
[1]; hCP 2 nM, 1 h preincubation with ions, Tris 25 mM pH 7.6, 37 °C, no SDS, read-out: IC50 T-L
  IC50: 1.45 µM
[1]; in the presence of 0.018% SDS, other conditions unmodified, read-out: IC50 T-L, Cu(II) + SDS
  IC50: 1.35 µM
[2]
  ChT-L activity of yCP at 5 μM versus 3 μM: significantly lower
20S proteasome (CP) gate
  Red shift of first Trp fluorescence component (gate opening): decreased rate of red-shift
[3]
  Accumulation of ubiquitinated proteins: enhanced the accumulation of ubiquitinated proteins
[4]; hCP 2 nM, 1 h preincubation with ions, Tris 25 mM pH 7.6, 37 °C, no SDS, read-out: IC50 ChT-L
  IC50: 1.19 µM
[4]; hCP incubated with Cu(II) 2.20 μM, equimolar EDTA added
  Recovery of ChT-L activity after EDTA addition (reversibility): did not evidence any recovery of the ChT-L activity
[4]; in the presence of 0.018% SDS, other conditions unmodified, read-out: IC50 ChT-L, Cu(II) + SDS
  IC50: 0.73 µM

Reference: publication PMC5025780, “Copper(II) ions affect the gating dynamics of the 20S proteasome: a molecular and in cell study” (Scientific Reports, 2016)
